Measurements from the CheMixHub viscosity set.
± gives the uncertainty stated by the source.

Test: xn = mol fraction of the nth substance listed

CCC(C)=O + C1CCCCC1
Conditions	viscosity [mPa·s]
293.15 K, 101.33 kPa, x2 = 0.0479	0.401 ± 0.008
293.15 K, 101.33 kPa, x2 = 0.0956	0.404 ± 0.008
293.15 K, 101.33 kPa, x2 = 0.1983	0.433 ± 0.008
293.15 K, 101.33 kPa, x2 = 0.3046	0.466 ± 0.009
293.15 K, 101.33 kPa, x2 = 0.4002	0.488 ± 0.009
293.15 K, 101.33 kPa, x2 = 0.5028	0.53 ± 0.009
293.15 K, 101.33 kPa, x2 = 0.6056	0.581 ± 0.01
293.15 K, 101.33 kPa, x2 = 0.703	0.641 ± 0.011
293.15 K, 101.33 kPa, x2 = 0.8048	0.72 ± 0.012
293.15 K, 101.33 kPa, x2 = 0.9029	0.824 ± 0.014
293.15 K, 101.33 kPa, x2 = 0.9515	0.888 ± 0.014
298 K, 101.3 kPa, x2 = 0.126	0.426 ± 0.006
298 K, 101.3 kPa, x2 = 0.2633	0.448 ± 0.006
298 K, 101.3 kPa, x2 = 0.4524	0.501 ± 0.006
298 K, 101.3 kPa, x2 = 0.6037	0.554 ± 0.006
298 K, 101.3 kPa, x2 = 0.8267	0.685 ± 0.007
298.15 K, 101 kPa, x2 = 0.1	0.41 ± 0.004
298.15 K, 101 kPa, x2 = 0.2	0.425 ± 0.005
298.15 K, 101 kPa, x2 = 0.3	0.444 ± 0.005
298.15 K, 101 kPa, x2 = 0.4	0.472 ± 0.005
298.15 K, 101 kPa, x2 = 0.5	0.508 ± 0.005
298.15 K, 101 kPa, x2 = 0.6	0.548 ± 0.006
298.15 K, 101 kPa, x2 = 0.7	0.595 ± 0.006
298.15 K, 101 kPa, x2 = 0.8	0.665 ± 0.007
298.15 K, 101 kPa, x2 = 0.9	0.752 ± 0.007
298.15 K, 101.33 kPa, x2 = 0.0479	0.381 ± 0.007
298.15 K, 101.33 kPa, x2 = 0.0956	0.39 ± 0.008
298.15 K, 101.33 kPa, x2 = 0.1983	0.41 ± 0.008
298.15 K, 101.33 kPa, x2 = 0.3046	0.441 ± 0.008
298.15 K, 101.33 kPa, x2 = 0.4002	0.459 ± 0.008
298.15 K, 101.33 kPa, x2 = 0.5028	0.498 ± 0.009
298.15 K, 101.33 kPa, x2 = 0.6056	0.543 ± 0.01
298.15 K, 101.33 kPa, x2 = 0.703	0.597 ± 0.01
298.15 K, 101.33 kPa, x2 = 0.8048	0.668 ± 0.011
298.15 K, 101.33 kPa, x2 = 0.9029	0.76 ± 0.013
298.15 K, 101.33 kPa, x2 = 0.9515	0.816 ± 0.013
303.15 K, 101.33 kPa, x2 = 0.0479	0.363 ± 0.007
303.15 K, 101.33 kPa, x2 = 0.0956	0.37 ± 0.007
303.15 K, 101.33 kPa, x2 = 0.1983	0.388 ± 0.007
303.15 K, 101.33 kPa, x2 = 0.3046	0.419 ± 0.008
303.15 K, 101.33 kPa, x2 = 0.4002	0.433 ± 0.008
303.15 K, 101.33 kPa, x2 = 0.5028	0.468 ± 0.009
303.15 K, 101.33 kPa, x2 = 0.6056	0.51 ± 0.009
303.15 K, 101.33 kPa, x2 = 0.703	0.558 ± 0.01
303.15 K, 101.33 kPa, x2 = 0.8048	0.622 ± 0.011
303.15 K, 101.33 kPa, x2 = 0.9029	0.705 ± 0.012
303.15 K, 101.33 kPa, x2 = 0.9515	0.754 ± 0.013
307.35 K, 101.33 kPa, x1 = 0.1093	0.648 ± 0.01
307.35 K, 101.33 kPa, x1 = 0.361	0.504 ± 0.0093
307.35 K, 101.33 kPa, x1 = 0.4975	0.453 ± 0.0089
307.35 K, 101.33 kPa, x1 = 0.555	0.429 ± 0.0086
307.35 K, 101.33 kPa, x1 = 0.6809	0.413 ± 0.0085
307.35 K, 101.33 kPa, x1 = 0.8865	0.366 ± 0.0081
318 K, 101.3 kPa, x2 = 0.1257	0.349 ± 0.015
318 K, 101.3 kPa, x2 = 0.2611	0.3682 ± 0.015
318 K, 101.3 kPa, x2 = 0.4518	0.3996 ± 0.016
318 K, 101.3 kPa, x2 = 0.6033	0.4343 ± 0.017
318 K, 101.3 kPa, x2 = 0.8254	0.5157 ± 0.02

COC(C)=O + C1CCCCC1
viscosity [mPa·s], 101 kPa
Conditions	298.15 K	308.15 K
x1 = 0.055	0.839 ± 0.084	0.699 ± 0.07
x1 = 0.1546	0.759 ± 0.076	0.614 ± 0.062
x1 = 0.2543	0.689 ± 0.069	0.547 ± 0.055
x1 = 0.3548	0.627 ± 0.063	0.493 ± 0.05
x1 = 0.4537	0.572 ± 0.057	0.45 ± 0.045
x1 = 0.4985	0.551 ± 0.055	0.435 ± 0.044
x1 = 0.5556	0.525 ± 0.053	0.417 ± 0.042
x1 = 0.6544	0.483 ± 0.049	0.392 ± 0.039
x1 = 0.7479	0.448 ± 0.045	0.374 ± 0.038
x1 = 0.8548	0.413 ± 0.041	0.36 ± 0.036
x1 = 0.9548	–	0.352 ± 0.035

COC(C)=O + C1COCCO1
303.15 K, 101.3 kPa
Conditions	viscosity [mPa·s]
x2 = 0.1026	0.3813 ± 0.0033
x2 = 0.3032	0.4727 ± 0.0037
x2 = 0.5004	0.5895 ± 0.0042
x2 = 0.7187	0.7642 ± 0.005
x2 = 0.8981	0.9562 ± 0.006

CC(=O)OC(C)C(C)C (stereo unspecified) + C=CC#N
viscosity [mPa·s], 101.33 kPa
Conditions	x2 = 0.096	x2 = 0.1903	x2 = 0.287	x2 = 0.3796	x2 = 0.4771	x2 = 0.582	x2 = 0.6783	x2 = 0.7861	x2 = 0.894
298.15 K	0.761 ± 0.02	0.726 ± 0.019	0.684 ± 0.018	0.641 ± 0.017	0.595 ± 0.016	0.54 ± 0.015	0.493 ± 0.014	0.44 ± 0.013	0.388 ± 0.012
303.15 K	0.71 ± 0.019	0.681 ± 0.018	0.641 ± 0.017	0.601 ± 0.016	0.558 ± 0.015	0.51 ± 0.014	0.465 ± 0.013	0.417 ± 0.012	0.37 ± 0.011
308.15 K	0.663 ± 0.018	0.639 ± 0.017	0.604 ± 0.016	0.565 ± 0.016	0.526 ± 0.015	0.48 ± 0.014	0.44 ± 0.013	0.396 ± 0.012	0.353 ± 0.011
